Data published in patent US20150038435A1, “N-TERMINALLY MODIFIED OLIGOPEPTIDES AND USES THEREOF” (Novo Nordisk A/S, priority 2012, published 2015).
*: point of attachment. Lauroyl = CCCCCCCCCCCC(=O)*

Experiments:
[1] = test system: Trypsin; test: Inhibition of enzymatic degradation of a model GLP-1 (FRET substrate) by trypsin; assay type: biochemical; settings: compound 0.1 mM, buffer containing 8% DMSO
Method in brief: (§1)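 Initial-rate slopes of fluorescence rise (320 nm ex, 405 nm em), fitted over the linear early phase and averaged from duplicates, were plotted against inhibitor concentration and fitted logistically to give EC50. Reactions ran at 37° C in Dulbecco's PBS, with MCA/DNP GLP-1 FRET substrate added as 10 μl of 100 μM stock.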

[2] = Hydrophobicity: retention time during reverse phase HPLC; assay type: physicochemical; settings: Acquity CSH C18; pH 7.2 buffer/CH3CN gradient; 40° C.
From the text: The retention time (RT) during reverse phase HPLC was taken as a measure of hydrophobicity of an N-terminally modified peptide or oligopeptide of the invention, where the connection is: The longer the RT, the more hydrophobic N-terminally modified peptide or oligopeptide. The following running conditions were applied during HPLC analysis:
Buffer B: 70% (v/v) aq. CH3CN

[3] = test system: Chymotrypsin; test: Inhibition of enzymatic degradation of a model GLP-1 (FRET substrate) by chymotrypsin; assay type: biochemical; settings: compound 0.1 mM, buffer containing 8% DMSO
Method in brief: as §1

Substance	Slope of the initial increase in fluorescence obtained during incubation with 0.001 mg/ml Trypsin [1]	RT (retention time during reverse phase HPLC as a measure of hydrophobicity) [2] [min]	Slope of the initial increase in fluorescence obtained during incubation with 0.001 mg/ml Chymotrypsin [3]
N-dodecanoyl-Ala-Glu-Pro-Tyr-OH (Lauroyl-AEPY-OH; SMILES CCCCCCCCCCCC(=O)N[C@@H](C)C(=O)N[C@@H](CCC(=O)O)C(=O)N1CCC[C@H]1C(=O)N[C@@H](Cc1ccc(O)cc1)C(=O)O) [Example 77]	1.55	4.17	1.56
N-dodecanoyl-Ala-Gly-Pro-Tyr-OH (Lauroyl-AGPY-OH; SMILES CCCCCCCCCCCC(=O)N[C@@H](C)C(=O)NCC(=O)N1CCC[C@H]1C(=O)N[C@@H](Cc1ccc(O)cc1)C(=O)O) [Example 78]	1.87	5.59	1.03
N-dodecanoyl-Ala-His-Pro-Tyr-OH (Lauroyl-AHPY-OH; SMILES CCCCCCCCCCCC(=O)N[C@@H](C)C(=O)N[C@@H](Cc1c[nH]cn1)C(=O)N1CCC[C@H]1C(=O)N[C@@H](Cc1ccc(O)cc1)C(=O)O) [Example 79]	1.93	5.29	0.51
N-dodecanoyl-Ala-Ile-Pro-Tyr-OH (Lauroyl-AIPY-OH; SMILES CCCCCCCCCCCC(=O)N[C@@H](C)C(=O)N[C@H](C(=O)N1CCC[C@H]1C(=O)N[C@@H](Cc1ccc(O)cc1)C(=O)O)[C@@H](C)CC) [Example 80]	1.83	7.24	0.10
N-dodecanoyl-Ala-Leu-Pro-Tyr-OH (Lauroyl-ALPY-OH; SMILES CCCCCCCCCCCC(=O)N[C@@H](C)C(=O)N[C@@H](CC(C)C)C(=O)N1CCC[C@H]1C(=O)N[C@@H](Cc1ccc(O)cc1)C(=O)O) [Example 81]	1.90	7.38	0.40
N-dodecanoyl-Ala-Lys-Pro-Tyr-OH (Lauroyl-AKPY-OH; SMILES CCCCCCCCCCCC(=O)N[C@@H](C)C(=O)N[C@@H](CCCCN)C(=O)N1CCC[C@H]1C(=O)N[C@@H](Cc1ccc(O)cc1)C(=O)O) [Example 82]	1.50	5.07	0.24
N-dodecanoyl-Ala-Met-Pro-Tyr-OH (Lauroyl-AMPY-OH; SMILES CCCCCCCCCCCC(=O)N[C@@H](C)C(=O)N[C@@H](CCSC)C(=O)N1CCC[C@H]1C(=O)N[C@@H](Cc1ccc(O)cc1)C(=O)O) [Example 83]	1.64	6.88	0.32
N-dodecanoyl-Ala-Phe-Pro-Tyr-OH (Lauroyl-AFPY-OH; SMILES CCCCCCCCCCCC(=O)N[C@@H](C)C(=O)N[C@@H](Cc1ccccc1)C(=O)N1CCC[C@H]1C(=O)N[C@@H](Cc1ccc(O)cc1)C(=O)O) [Example 84]	1.43	7.77	0.14
N-dodecanoyl-Ala-Pro-Pro-Tyr-OH (Lauroyl-APPY-OH; SMILES CCCCCCCCCCCC(=O)N[C@@H](C)C(=O)N1CCC[C@H]1C(=O)N1CCC[C@H]1C(=O)N[C@@H](Cc1ccc(O)cc1)C(=O)O) [Example 85]	1.92	6.1	1.81
N-dodecanoyl-Ala-Ser-Pro-Tyr-OH (Lauroyl-ASPY-OH; SMILES CCCCCCCCCCCC(=O)N[C@@H](C)C(=O)N[C@@H](CO)C(=O)N1CCC[C@H]1C(=O)N[C@@H](Cc1ccc(O)cc1)C(=O)O) [Example 86]	1.89	5.64	0.33
N-dodecanoyl-Ala-Thr-Pro-Tyr-OH (Lauroyl-ATPY-OH; SMILES CCCCCCCCCCCC(=O)N[C@@H](C)C(=O)N[C@H](C(=O)N1CCC[C@H]1C(=O)N[C@@H](Cc1ccc(O)cc1)C(=O)O)[C@@H](C)O) [Example 87]	1.91	5.76	0.48
N-dodecanoyl-Ala-Trp-Pro-Tyr-OH (Lauroyl-AWPY-OH; SMILES CCCCCCCCCCCC(=O)N[C@@H](C)C(=O)N[C@@H](Cc1c[nH]c2ccccc12)C(=O)N1CCC[C@H]1C(=O)N[C@@H](Cc1ccc(O)cc1)C(=O)O) [Example 88]	0.80	7.88	0.11
N-dodecanoyl-Ala-Tyr-Pro-Tyr-OH (Lauroyl-AYPY-OH; SMILES CCCCCCCCCCCC(=O)N[C@@H](C)C(=O)N[C@@H](Cc1ccc(O)cc1)C(=O)N1CCC[C@H]1C(=O)N[C@@H](Cc1ccc(O)cc1)C(=O)O) [Example 89]	1.86	6.23	0.80
N-dodecanoyl-Ala-Val-Pro-Tyr-OH (Lauroyl-AVPY-OH; SMILES CCCCCCCCCCCC(=O)N[C@@H](C)C(=O)N[C@H](C(=O)N1CCC[C@H]1C(=O)N[C@@H](Cc1ccc(O)cc1)C(=O)O)C(C)C) [Example 90]	1.25	6.6	0.35
N-dodecanoyl-Ala-Val-Tyr-OH [Example 112]	2.35	6.6	1.44
N-dodecanoyl-Arg-Ala-Ala-Pro-Tyr-OH [Example 91]	1.06	4.63	0.00
N-dodecanoyl-Arg-Ala-Pro-Tyr-OH (Lauroyl-RAPY-OH; SMILES CCCCCCCCCCCC(=O)N[C@@H](CCCNC(=N)N)C(=O)N[C@@H](C)C(=O)N1CCC[C@H]1C(=O)N[C@@H](Cc1ccc(O)cc1)C(=O)O) [Example 92]	1.44	4.84	0.23
N-dodecanoyl-Arg-Pro-Tyr-OH [Example 113]	2.00	5.29	0.18
N-dodecanoyl-Asn-Ala-Ala-Pro-Tyr-OH [Example 93]	1.90	4.84	0.14
N-dodecanoyl-Asn-Ala-Pro-Tyr-OH (Lauroyl-NAPY-OH; SMILES CCCCCCCCCCCC(=O)N[C@@H](CC(N)=O)C(=O)N[C@@H](C)C(=O)N1CCC[C@H]1C(=O)N[C@@H](Cc1ccc(O)cc1)C(=O)O) [Example 94]	1.90	4.77	1.83
N-dodecanoyl-Asn-Pro-Tyr-OH [Example 114]	1.99	5.07	2.01
N-dodecanoyl-Asp-Ala-Ala-Pro-Tyr-OH [Example 95]	1.82	3.92	0.10
N-dodecanoyl-Asp-Ala-Pro-Tyr-OH (Lauroyl-DAPY-OH; SMILES CCCCCCCCCCCC(=O)N[C@@H](CC(=O)O)C(=O)N[C@@H](C)C(=O)N1CCC[C@H]1C(=O)N[C@@H](Cc1ccc(O)cc1)C(=O)O) [Example 96]	1.78	3.86	1.63
N-dodecanoyl-Asp-Pro-Tyr-OH [Example 115]	1.73	3.91	2.04
N-dodecanoyl-Gln-Ala-Ala-Pro-Tyr-OH [Example 102]	1.66	4.82	0.14
